From patent publication US5493024A, “3,4,N-trisubstituted-4,5-dihydro-1H-pyrazole-1-carboxamides and their use as insectioides” (DowElanco, priority 1993, dated 1996)
Values after ≈ are worked out from the molar mass of the structure shown.

Key:
[1] = test system: Blattella germanica nymphs; assay: Effect on cockroaches, contact test (treated vials); assay type: in vivo; conditions: 168 h, 50 ppm solution, after 7 days, 27° C, read-out: percent control, contact test
Method: (§1) Two hundred ppm stock solutions of the compounds to be tested were prepared by dissolving 2.4 milligrams (mg) of each test compound in 12 mL of acetone; four lower concentration solutions were prepared by serial dilution using 3 mL of solution. A 0.5 mL portion of each test solution was pipetted onto 0.2 g of yellow corn meal placed in a small test tube cap (Fisher 02-706-33) and the mixture was placed in a fume hood overnight to allow the solvent to evaporate. […] Each cap was then placed in a 9 cm (centimeter) diameter Petri plate along with a 2 dram vial containing a cotton wick and water. A 0.5 mL portion of each test solution was also pipetted into a 20 mL borosilicate glass scintillation vial. The vials were placed on a roller mixer and the acetone was allowed to evaporate while the vials rolled. […] Five late third or early fourth instar Blattella germanica nymphs weighing 0.01-0.04 g were placed in each vial and each Petri plate and covers were applied loosely to allow entry of air. Each Petri plate and vial was held at 27° C., the Petri plates for 21 days and the vials for 7 days. The percent of mortality was read periodically and at the end of the test.

beet armyworm [2] = assay: Effect on beet armyworm, contact test (treated Teflon discs); assay type: in vivo, S. exigua (beet armyworm); conditions: Spodoptera exigua, 144 h; second-instar larvae, sprayed Teflon discs 24 hours, then 5 more days on untreated leaf, 25° C; read-out: BEET ARMYWORM Contact Test LC50, ppm
Method: (§2) Effect on Tobacco Budworm and Beet Armyworm by Contact.
(§3) Stock solutions of the compounds to be tested having a known concentration were prepared by dissolving weighed amounts in a 90:10 mixture of high-purity acetone and ethanol and these solutions were diluted with distilled water (containing 0.05 percent by weight Tween 20™ surfactant) to obtain the spray solutions of known concentration employed. Teflon™ discs 5 cm in diameter were placed in plastic petri dishes of slightly larger diameter and these dishes were sprayed by means of a track sprayer applying 0.104 mL of spray solution per cup. The Teflon™ discs were allowed to dry, a single second-instar H. virescens (tobacco budworm) or S. exigua (beet armyworm) larva was placed on each Teflon™ disc, and each disc was capped with a plastic lid. Ten Teflon™ discs were prepared for each application rate and five application rates were usually run. Treated discs were stored for 24 hours at 25° C. and then the Teflon™ disc was removed and replaced with an untreated cotton leaf disc. After 5 more days of storage at 25 ° C. the dishes were graded for mortality. Untreated controls and positive controls (cypermethrin) were run simultaneously. The amount of test chemical required to kill half of the larvae (LD50) was calculated.

tobacco budworm [3] = assay: Effect on tobacco budworm, contact and ingestion test (treated cotton leaf discs); assay type: in vivo, H. virescens (tobacco budworm); conditions: Heliothis virescens, foliar, 120 h; second-instar larvae, sprayed cotton leaf discs, 5 days at 25° C; read-out: TOBACCO BUDWORM Contact and Ingestion Test LC50, ppm
Method: (§4) Effect on Tobacco Budworm and Beet Armyworm by Leaf Ingestion and/or Contact.
(§5) Stock solutions of the compounds to be tested having a known concentration were prepared by dissolving weighed amounts in a 90:10 mixture of high-purity acetone and ethanol and these solutions were diluted with distilled water (containing 0.05 percent by weight Tween 20™ surfactant) to obtain the spray solutions of known concentration employed. Greenhouse-grown cotton leaves of uniform age were cut into 2.5 cm diameter discs and one disc was placed in the bottom of each of a number of 30 mL plastic cups. The cups were then sprayed by means of a track sprayer applying 0.055 mL of spray solution per cup. The leaf discs were allowed to dry and then a single second-instar H. virescens (tobacco budworm) or S. exigua (beet armyworm) larva was added to each cup and each cup was capped with a perforated plastic lid. Ten cups were prepared for each insect species and each application rate and five applications rates were usually run. Treated cups were stored for 5 days at 25° C. and were then graded for mortality. Untreated controls and positive controls (cypermethrin) were run simultaneously. The amount of test chemical required to kill half of the larvae (LD50) was calculated.

beet armyworm [4] = assay: Effect on beet armyworm, contact and ingestion test (treated cotton leaf discs); assay type: in vivo, S. exigua (beet armyworm); conditions: Spodoptera exigua, foliar, 120 h; second-instar larvae, sprayed cotton leaf discs, 5 days at 25° C; read-out: BEET ARMYWORM Contact and Ingestion Test LC50, ppm
Method: as §4, §5

tobacco budworm [5] = assay: Effect on tobacco budworm, contact test (treated Teflon discs); assay type: in vivo, H. virescens (tobacco budworm); conditions: Heliothis virescens, 144 h; second-instar larvae, sprayed Teflon discs 24 hours, then 5 more days on untreated leaf, 25° C; read-out: TOBACCO BUDWORM Contact Test LC50, ppm
Method: as §2, §3

[6] = test system: Blattella germanica nymphs; assay: Effect on cockroaches, ingestion test (treated corn meal); assay type: in vivo; conditions: 504 h, after 21 days, 27° C, read-out: percent control, ingestion test; for mortality at 12.5 ppm: 12.5 ppm solution; for mortality at 50 ppm: 50 ppm solution; for mortality at 200 ppm: 200 ppm solution
Method: as §1

Row | Compound | mortality at 50 ppm [1] [%] | LC50 (beet armyworm [2]) [µg/mL] | LC50 (tobacco budworm [3]) [µg/mL] | LC50 (beet armyworm [4]) [µg/mL] | LC50 (tobacco budworm [5]) [µg/mL] | mortality at 12.5 ppm [6] [%] | mortality at 50 ppm [6] [%] | mortality at 200 ppm [6] [%]
1 | O=C(Nc1ccc(C(F)(F)F)cc1)N1CC(c2ccc(C(F)(F)F)cn2)C(c2ccc(F)cc2)=N1 (stereo not shown) [G, 4,5-Dihydro-3-(4-fluorophenyl)-N-(4-trifluoromethylphenyl)-4-(5-trifluoromethyl-2-pyridinyl)-1H-pyrazole-1-carboxamide] | 100 | 5 (≈ 10.1 µM) | 1.1 (≈ 2.22 µM) | 1 (≈ 2.01 µM) | 8.7 (≈ 17.5 µM) | ~100 | ~100 | 100
2 | O=C(Nc1ccc(OC(F)(F)F)cc1)N1CC(c2ncc(Cl)cn2)C(c2ccc(F)cc2)=N1 (stereo not shown) [T, 4-(5-Chloro-2-pyrimidinyl)-4,5-dihydro-3-(4-fluorophenyl)-N-(4-trifluoromethoxyphenyl)-1H-pyrazole-1-carboxamide] | 100 | 2.2 (≈ 4.59 µM) | 1.3 (≈ 2.71 µM) | 1.4 (≈ 2.92 µM) | 7.5 (≈ 15.6 µM) | ~100 | ~100 | 100
